Experimental data published in publication PMC4967369 (Xenobiotica; the fate of foreign compounds in biological …, 2015).
Read-outs that look alike come from different tables or passages of the source. Blank lines part the entries; values can stand above or below the molecule they belong to.

Tests used:
[1] = Isoflavone glucuronidation assay, dog liver microsomes; assay type: in vitro ADME; details: mixed-breed, dog, pH 7.5
dog liver microsomes = test: as above; assay type: in vitro ADME; details: pooled dog liver microsomes (n=16)
[2] = Isoflavone glucuronidation assay, cat liver microsomes; assay type: in vitro ADME; details: domestic short-hair, cat, pH 7.5
cat liver microsomes [3] = test: as above; assay type: in vitro ADME; details: for Vmax, 7-OH-glucuronidation: pooled cat liver microsomes (n=5); for Rank of cat liver glucuronidation rate among species: pooled liver microsomes, 35 µM substrate, 13 species compared
[4] = Isoflavone glucuronidation assay, human liver microsomes; assay type: in vitro ADME; details: human, pH 7.5
human liver microsomes = test: as above; assay type: in vitro ADME; details: pooled human liver microsomes (n=48)
[5] = system: liver microsomes from 13 different species; test: Isoflavone glucuronidation by liver microsomes from 13 different species; assay type: in vitro ADME, 13 species
cat liver microsomes [6] = test: Estradiol glucuronidation assay, cat liver microsomes; assay type: in vitro ADME; details: cat livers, 100 µM substrate
[7] = system: mongoose liver microsomes; test: Estradiol glucuronidation assay, mongoose liver microsomes; assay type: in vitro ADME; details: mongoose livers, 100 µM substrate
ferret liver microsomes = test: Estradiol glucuronidation assay, ferret liver microsomes; assay type: in vitro ADME; details: ferret livers, 100 µM substrate
[8] = for Urinary concentration, Unconjugated: without enzyme treatment, normalized to creatinine
[9] = for Urinary concentration, Unconjugated: without enzyme treatment, normalized to creatinine; for % Glucuronides: percentage of free and conjugated isoflavones that are glucuronide
[10] = dog, in vivo
[11] = in vivo
[12] = pooled liver microsomes, 35 µM substrate

SMILES: O=c1c(-c2ccc(O)cc2)coc2cc(O)ccc12 [Daidzein, daidzein]
- Km ([1]; pooled dog liver microsomes): 55.4 ± 3.8 µM
- Vmax, 7-OH-glucuronidation (dog liver microsomes): 8.10 ± 0.1 nmoles/min/mg protein
- Km ([2]; pooled cat liver microsomes): 41.9 ± 6.6 µM
- Vmax, 7-OH-glucuronidation (cat liver microsomes [3]): 1.61 ± 0.06 nmoles/min/mg protein
- Rank of cat liver glucuronidation rate among species (cat liver microsomes [3]): within the lowest three out of 13 species
- Km ([4]; pooled human liver microsomes): 26.6 ± 5.1 µM
- Vmax, 7-OH-glucuronidation (human liver microsomes): 1.30 ± 0.05 nmoles/min/mg protein
- 4'-OH-glucuronidation, detection ([5]; 35 µM, pH 7.5): could not be measured in five of the 13 species

SMILES: Oc1ccc(C2=Cc3ccc(O)cc3OC2)cc1 [dehydroequol]
- Detection of metabolite in urine ([8]; dog urine, before or after treatment with deconjugation enzymes): not detected
- Detection of metabolite in urine ([9]; cat urine, before or after treatment with deconjugation enzymes): not detected

SMILES: CC(C(=O)c1c(O)cc(O)cc1O)c1ccc(O)cc1 (stereo not drawn) [6-hydroxy-O-desmethylangolensin]
- Detection of metabolite in urine [10]: not detected
- Detection of metabolite in urine [11]: not detected

SMILES: O=C1c2c(O)cc(O)cc2OCC1c1ccc(O)cc1 (stereo not drawn) [Dihydrogenistein, dihydrogenistein]
- Urinary concentration, Glucuronides ([8]; pooled dog urine (n=10), after bovine liver β-glucuronidase treatment, mean): 631 pmoles / mg creatinine
- % Glucuronides ([8]; pooled dog urine (n=10), percentage of free and conjugated isoflavones that are glucuronide): 33%
- Urinary concentration, Total ([8]; pooled dog urine (n=10), sum of free and conjugated concentrations, mean): 1919 pmoles / mg creatinine
- Urinary concentration, Unconjugated ([8]; pooled dog urine (n=10), mean): 0 pmoles / mg creatinine
- Urinary concentration, Glucuronides ([9]; pooled cat urine (n=18), after bovine liver β-glucuronidase treatment, mean): 0 pmoles / mg creatinine
- % Glucuronides ([9]; pooled cat urine (n=18)): 0%
- % Glucuronides ([9]; pooled cat urine (n=18), listed as dihydrogenistein): undetectable
- Urinary concentration, Total ([9]; pooled cat urine (n=18), sum of free and conjugated concentrations, mean): 2998 pmoles / mg creatinine
- Urinary concentration, Unconjugated ([9]; pooled cat urine (n=18), mean): 0 pmoles / mg creatinine

Second part, led by results:

- Rank of estradiol glucuronidation among 13 species (cat liver microsomes [6]): sixth lowest
- Rank of estradiol glucuronidation among 13 species [7]: fifth
- Rank of estradiol glucuronidation among 13 species (ferret liver microsomes): third lowest
SMILES: C[C@]12CC[C@@H]3c4ccc(O)cc4CC[C@H]3[C@@H]1CC[C@@H]2O [estradiol, β-estradiol]

- Km [1]: 15.3 ± 2.4 µM
- Km [2]: 10.3 ± 2.5 µM
- Km [4]: 11.7 ± 2.4 µM
- Urinary concentration, Unconjugated ([8]; pooled dog urine (n=10), mean): 31 pmoles / mg creatinine
- Urinary concentration, Unconjugated ([9]; pooled cat urine (n=18), mean): 29 pmoles / mg creatinine
SMILES: O=c1c(-c2ccc(O)cc2)coc2cc(O)cc(O)c12 [Genistein, genistein]
- Vmax, 7-OH-glucuronidation (dog liver microsomes): 5.13 ± 0.2 nmoles/min/mg protein
- Vmax, 7-OH-glucuronidation (cat liver microsomes [3]): 2.15 ± 0.1 nmoles/min/mg protein
- Rank of cat liver glucuronidation rate among species (cat liver microsomes [3]): within the lowest three out of 13 species
- Vmax, 7-OH-glucuronidation (human liver microsomes): 1.60 ± 0.07 nmoles/min/mg protein
- Glucuronidation at the 5-OH position ([5]; search for additional HPLC peaks with the same mass spectrum): no evidence for glucuronidation at that site

- Urinary concentration, Unconjugated ([8]; pooled dog urine (n=10), mean): 9 pmoles / mg creatinine
SMILES: COc1cc2c(=O)c(-c3ccc(O)cc3)coc2cc1O [Glycitein, glycitein]

- Detection of metabolite in urine [10]: not detected
- Detection of metabolite in urine [11]: not detected
SMILES: CC(C(=O)c1ccc(O)cc1O)c1ccc(O)cc1 (stereo not drawn) [O-desmethylangolensin]

- Km ([1]; pooled dog liver microsomes): 32.6 ± 6.9 µM
- Km ([2]; pooled cat liver microsomes): 132 ± 26 µM
- Km ([4]; pooled human liver microsomes): 31.8 ± 5.1 µM
- Equol to daidzein ratio ([8]; individual dog urine samples with detectable equol (three of ten)): 0.004–0.017
- Urinary concentration, Unconjugated ([8]; pooled dog urine (n=10), mean): 0 pmoles / mg creatinine
SMILES: Oc1ccc([C@H]2COc3cc(O)ccc3C2)cc1 [Equol, equol]
- Vmax, 7-OH-glucuronidation (dog liver microsomes): 14.3 ± 0.6 nmoles/min/mg protein
- Vmax, 7-OH-glucuronidation (cat liver microsomes [3]): 20.4 ± 1.4 nmoles/min/mg protein
- Rank of cat liver glucuronidation rate among species (cat liver microsomes [3]): within the lowest three out of 13 species
- Vmax, 7-OH-glucuronidation (human liver microsomes): 17.4 ± 0.7 nmoles/min/mg protein
- 4'-OH-glucuronidation, detection [5, 12]: not detected in any of the species evaluated
- 7-OH-glucuronidation, detection [5, 12]: detected in all species livers’ evaluated except for glucuronidation of equol by mongoose liver
